Assay results as given in patent EP1861101B1, “USE OF AMIDES OF SULFADIMIDINE FOR THE TREATMENT OF INTESTINAL DISEASES IN VETERINARY SCIENCE” (priority 2005, dated 2006).
Where two headings read alike, the source gives them in different places.

What was measured:
digestive syndrome = test: prevention and treatment of digestive syndrome (colibacillosis and enterotoxemia) in rabbit farming; assay type: in vivo; settings: rabbits
Source text: Given the complex relations existing between colibacillosis and enterotoxemia, they are currently included under the designation "digestive syndrome" for practical purposes. Treatment with an association of systemic drugs with drugs acting exclusively on the intestinal tract is indicated.
In the following table 2 the use of SMAA is compared to the products used most often in rabbit farming for the prevention and treatment of digestive syndrome: Table 2

C. perfringens = assay type: in vivo, lambs; settings: 500 g/ton of feed
[1] = depletion of residue in lambs fed treated feed until the day of slaughter; assay type: in vivo; settings: lambs that consumed treated feed until the day of slaughter
[2] = system: Clostridium, E. coli, Salmonella, and Eimeria parasites; test: treatment of ovine livestock with SMAA in food; assay type: in vivo; settings: even at high doses
Source text: In general, ovine livestock according to the invention is preferably treated with SMAA in food. The invention is especially useful for the prevention of enteric bacterial processes, mainly due to Clostridium, E. coli, Salmonella, and Eimeria parasites. […] Incompatibilities with other medicaments are unknown. It is not necessary to establish a withdrawal period before slaughter.
According to the invention, the association of SMAA-chlortetracycline is preferred when the pathology is located fundamentally in the digestive tract, and the association of SMAA-oxytetracycline when a preventive action at the enteric and respiratory level is sought. The most habitual doses range from 200 and 400 g/ton of feed, although it can be raised to 750 g/ton without problems.

Eimeria = test: field tests, treatment of coccidiosis in broilers through feed; assay type: in vivo; settings: 200 to 400 g/metric ton of feed; given in the first three weeks of life, then replaced by another coccidiostatic
Experimental: SMAA was used for the treatment of coccidiosis in broilers through feed, at doses ranging from 200 to 400 g/metric ton of feed. The best results in terms of mortality, weight gain, and conversion index have been obtained when SMAA is administered in the first three weeks of life of the chickens, and then replaced by another coccidiostatic. To this effect, our experience confirms the observations that an even improved productivity is obtained when two different coccidiostatics are alternated in the growth period.

[3] = system: digestive bacterial diseases in pigs; test: SMAA in feed against enteric processes in swine; assay type: in vivo; settings: 400-600 g per ton of feed
Serpulina hyodisenteriae = test: SMAA in feed against swine dysentery; assay type: in vivo; settings: 550-600 g per ton of feed
Source text: Although establishing a dose for the administration of a therapeutic molecule is always difficult, because therapeutic efficacy not depend only on its efficacy at a given dose, but also on the state of the animals, management, sanitary conditions of operation, feeding etc., good results were obtained with SMAA in swine at doses of 550-600 g of SMAA per ton of feed. The association of SMAA with macrolides is interesting, but it is extremely important to consider the withdrawal period of the macrolide to avoid the accumulation of residues in carcasses.

solubility in water = assay type: physicochemical
Source text: If the amide is the amide of maleic acid (SMAA), the amide comprises one carboxylic group. […] The free acids of the compound of the invention are essentially water insoluble and electrically neutral compounds, which become soluble in water when the free carboxyl group or other groups in the compound are converted to the carboxylate form by addition of an equivalent amount of an appropriate base, for instance an alkali or ammonium hydroxide or amine or alkanolamine.

[4] = growth feed for swine; cited from earlier work
[5] = system: Clostridium, E. coli, and Salmonella; test: treatment of ovine livestock with soluble SMAA in drinking water; assay type: in vivo
Experimental: In another preferred embodiment of the invention, soluble SMAA is applied with drinking water. This application is especially useful for the treatment of enteric bacterial processes, mainly Clostridium, E. coli, and Salmonella. […] Incompatibilities with other medicaments are unknown. A withdrawal period before slaughter is not necessary. When non-absorbable derivatives of sulfadimidine are added to drinking water, they are not often associated with other molecules. […] The usual dose ranges from 550-1100 g/2000 liters of water for 4 to 6 days. The availability of a soluble form makes it possible to administer the product in a milk substitute. In this case the dosage should be established in relation to the consumption of powdered milk substitutes.

CCN1CCN(c2cc3c(cc2F)c(=O)c(C(=O)O)cn3C2CC2)CC1 [Enrofloxacin]
Observations (digestive syndrome; efficacy remark): Effective

O=C1OCCN1/N=C/c1ccc([N+](=O)[O-])o1 [Furazolidone]
Observations (digestive syndrome; efficacy remark): Effective.

Cc1cc(C)nc(NS(=O)(=O)c2ccc(NC(=O)/C=C\C(=O)O)cc2)n1 [SMAA, 4,6-dimethyl-2-N^4-maleylsulfanilamidopyrimidine]
Observations (digestive syndrome; duration of treatment and toxicity): Treatment can be prolonged without risk of toxicity
Observations (digestive syndrome; effect on mortality): This treatment curtails mortality
Observations (digestive syndrome; efficacy remark): The most effective agent in mixed infections by Coccidia
mortality (C. perfringens; end of trial (4 weeks), due to undetermined causes): lower than 0.3%
enterotoxemia in the livestock (C. perfringens; end of trial (4 weeks), five thousand lambs, richer feed (1.03 UFC)): absent
watery diarrhea caused by E. coli, Salmonella dysentery, or coccidiosis (C. perfringens; trial of 4 weeks): no case
residue level in meat [1]: below 30 ppb
dysbacteriosis [2]: no problems of dysbacteriosis have appeared
mortality, weight gain, and conversion index (Eimeria): best results
results in swine [3]: good results
results in swine (Serpulina hyodisenteriae): good results
solubility in water (solubility in water; listed as free acid of SMAA): essentially insoluble
Observations (Coccidia; efficacy remark, rabbits): most effective in mixed infections with E. coli
Observations (Coccidia; rabbit, in vivo): Treatment can be extended up to 3 weeks, if given in low doses, without risk of toxicity or residues in carcasses

COc1cc(NS(=O)(=O)c2ccc(NC(=O)/C=C\C(=O)O)cc2)nc(OC)n1 [Sulfadimethoxine maleic acid amide]
Observations (Coccidia; efficacy remark, rabbits): Very interesting in mixed infections
Observations (Coccidia; rabbit, in vivo): Treatments can continue for 21 days without risk of toxicity or residues in carcasses

COc1cc(NS(=O)(=O)c2ccc(N)cc2)nc(OC)n1 [Sulfadimethoxine]
Observations (Coccidia; efficacy remark, rabbits): Very interesting in mixed infections
Observations (Coccidia; rabbit, in vivo): requires a period of withdrawal before slaughter

Cc1cc(C)nc(NS(=O)(=O)c2ccc(N)cc2)n1 [Sulfadimidine, 2-(4-aminobenzenesulfonamido)-4,6-dimethylpyrimidine]
Observations (Coccidia; effect on mortality, rabbits): This treatment curtails mortality
withdrawal period [4]: 28 days

Cc1cc(C)nc(NS(=O)(=O)c2ccc(NC(=O)/C=C\C(=O)O)cc2)n1 [soluble SMAA]
dysbacteriosis ([5]; even at high doses): no problems of dysbacteriosis have appeared
treatment of coccidiosis outbreaks ([5]; usually 4 to 6 days): highly effective
solubility in water (solubility in water; listed as sodium salt): essentially soluble

Colistin
Observations (digestive syndrome; effect on mortality): Colistin reduces mortality

Neomycin
Observations (digestive syndrome; efficacy remark): Efficacious against moderately pathogenic strains.
